Source: PubChem BioAssay (NCI)
Values joined by “and” are separate entries in the source; they are usually repeats but may differ in a detail not shown here. Identical values can stand only once.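 96-well plates; 48 h exposure; 5 concentrations. Endpoints by linear interpolation between flanking doses. Not reached: highest tested concentration assigned. GI50 marks 50% less growth. TGI denotes the concentration required for complete inhibition of growth.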

How the values were obtained:
Assay in all cases: DTP human tumour cell line panel, 48 h
SK-MEL-2 melanoma = test system: SK-MEL-2 melanoma
A549 NSCLC = test system: A549 NSCLC
RXF 393 renal = test system: RXF 393 renal
MCF7 breast = test system: MCF7 breast
M14 melanoma = test system: M14 melanoma
ACHN renal = test system: ACHN renal
T-47D breast = test system: T-47D breast
KM12 colon = test system: KM12 colon
DU-145 prostate = test system: DU-145 prostate
OVCAR-3 ovarian = test system: OVCAR-3 ovarian

SMILES: CSc1nsc(S/C=C\C(=O)c2ccc(C)cc2)n1
- GI50 (SK-MEL-2 melanoma): 35.7 µM
- TGI (SK-MEL-2 melanoma): > 100 µM
- GI50 (A549 NSCLC): 35.1 µM
- TGI (A549 NSCLC): > 90.5 µM
- GI50 (RXF 393 renal): 15.9 µM
- TGI (RXF 393 renal): 31.9 µM
- TGI (MCF7 breast): 35.4 µM
- GI50 (M14 melanoma): 15.5 µM
- TGI (M14 melanoma): 30.8 µM
- GI50 (ACHN renal): 17.6 µM
- TGI (ACHN renal): 31.8 µM
- GI50 (T-47D breast): 23 µM
- TGI (T-47D breast): > 62.2 µM
- GI50 (KM12 colon): 28 µM
- TGI (KM12 colon): > 64.7 µM
- GI50 (DU-145 prostate): 20.5 µM
- TGI (DU-145 prostate): > 49.5 µM
- GI50 (OVCAR-3 ovarian): 17 µM
- TGI (OVCAR-3 ovarian): 34.5 µM

SMILES: CCCCNC(=O)Oc1ccc(/C(=C(/CC)Cc2ccccc2)c2ccc(OCCN3CCCCCC3)cc2)cc1
- GI50 (SK-MEL-2 melanoma): 71.9 µM
- TGI (SK-MEL-2 melanoma): > 100 µM
- GI50 (A549 NSCLC): 32.4 µM
- TGI (A549 NSCLC): > 100 µM
- GI50 (RXF 393 renal): 17.3 µM
- TGI (RXF 393 renal): 32.1 µM
- GI50 (MCF7 breast): 6.32 µM
- TGI (MCF7 breast): 59.6 µM
- GI50 (M14 melanoma): 17.7 µM
- TGI (M14 melanoma): 33.9 µM
- GI50 (ACHN renal): 18.6 µM
- TGI (ACHN renal): 41.6 µM
- GI50 (T-47D breast): 14.5 µM
- TGI (T-47D breast): 36.9 µM
- GI50 (KM12 colon): 31.7 µM
- TGI (KM12 colon): > 100 µM
- GI50 (DU-145 prostate): 41.7 µM
- TGI (DU-145 prostate): > 100 µM
- GI50 (OVCAR-3 ovarian): 19.9 µM
- TGI (OVCAR-3 ovarian): 42.6 µM

SMILES: CNCCNc1nc2ccccc2c2c(=O)c3cc(F)ccc3sc12
- GI50 (SK-MEL-2 melanoma): 1.76 µM
- TGI (SK-MEL-2 melanoma): 3.45 µM
- GI50 (A549 NSCLC): 1.65 µM
- TGI (A549 NSCLC): 3.29 µM
- GI50 (RXF 393 renal): 1.6 µM
- TGI (RXF 393 renal): 3.1 µM
- GI50 (MCF7 breast): 1.67 µM
- TGI (MCF7 breast): 3.31 µM
- GI50 (M14 melanoma): 1.64 µM
- TGI (M14 melanoma): 3.07 µM
- GI50 (ACHN renal): 1.56 µM
- TGI (ACHN renal): 2.91 µM
- GI50 (T-47D breast): 1.8 µM
- TGI (T-47D breast): 4.12 µM
- GI50 (KM12 colon): 1.74 µM
- TGI (KM12 colon): 3.25 µM
- GI50 (DU-145 prostate): 1.71 µM
- TGI (DU-145 prostate): 3.15 µM
- GI50 (OVCAR-3 ovarian): 1.7 µM
- TGI (OVCAR-3 ovarian): 3.25 µM

SMILES: CCCCN(CC)c1ncnc2ccc(Br)cc12
- GI50 (SK-MEL-2 melanoma): 29.5 µM
- TGI (SK-MEL-2 melanoma): > 100 µM
- GI50 (A549 NSCLC): 13.9 µM
- TGI (A549 NSCLC): 45.6 µM
- GI50 (RXF 393 renal): 8.45 µM
- TGI (RXF 393 renal): 24.7 µM
- GI50 (MCF7 breast): 24.6 µM
- TGI (MCF7 breast): 75.2 µM
- GI50 (M14 melanoma): 18.2 µM
- TGI (M14 melanoma): 34.7 µM
- GI50 (ACHN renal): 14.5 µM
- TGI (ACHN renal): 40.3 µM
- GI50 (T-47D breast): 28.9 µM
- TGI (T-47D breast): > 100 µM
- GI50 (KM12 colon): 15.3 µM
- TGI (KM12 colon): 31.6 µM
- GI50 (DU-145 prostate): 19.4 µM
- TGI (DU-145 prostate): 46.8 µM
- GI50 (OVCAR-3 ovarian): 15.8 µM
- TGI (OVCAR-3 ovarian): 32.5 µM

SMILES: CCCCCCNC(=O)n1cc(F)c(=O)[nH]c1=O
- GI50 (SK-MEL-2 melanoma): 12 µM
- TGI (SK-MEL-2 melanoma): 35.2 µM
- GI50 (A549 NSCLC): 0.738 µM
- TGI (A549 NSCLC): > 100 µM
- GI50 (RXF 393 renal): 6.22 µM
- TGI (RXF 393 renal): 20.3 µM
- GI50 (MCF7 breast): 0.65 µM
- TGI (MCF7 breast): 16.8 µM
- GI50 (M14 melanoma): 7.77 µM
- TGI (M14 melanoma): 23.9 µM
- GI50 (ACHN renal): 4.86 µM
- TGI (ACHN renal): 23 µM
- GI50 (T-47D breast): 11.7 µM
- TGI (T-47D breast): 47.5 µM
- GI50 (KM12 colon): 4.43 µM
- TGI (KM12 colon): > 100 µM
- GI50 (DU-145 prostate): 5.38 µM
- TGI (DU-145 prostate): > 100 µM
- GI50 (OVCAR-3 ovarian): 11.1 µM
- TGI (OVCAR-3 ovarian): > 100 µM

SMILES: Oc1c(CN2CCCC2)cc(CSCc2ccccc2)c2cccnc12
- GI50 (SK-MEL-2 melanoma): 1.86 µM
- TGI (SK-MEL-2 melanoma): 7.21 µM
- GI50 (A549 NSCLC): 1.73 µM
- TGI (A549 NSCLC): 10.6 µM
- GI50 (RXF 393 renal): 0.772 µM
- TGI (RXF 393 renal): 3.74 µM
- GI50 (MCF7 breast): 0.475 µM
- TGI (MCF7 breast): 11.3 µM
- GI50 (M14 melanoma): 0.397 µM
- TGI (M14 melanoma): 2.59 µM
- GI50 (ACHN renal): 0.291 µM
- TGI (ACHN renal): 10.2 µM
- GI50 (T-47D breast): 1.15 µM
- TGI (T-47D breast): 8.26 µM
- GI50 (KM12 colon): 0.635 µM
- TGI (KM12 colon): 11.9 µM
- GI50 (DU-145 prostate): 1.28 µM
- TGI (DU-145 prostate): 10.7 µM
- GI50 (OVCAR-3 ovarian): 0.44 µM
- TGI (OVCAR-3 ovarian): 2.7 µM

SMILES: COc1cc(/C=C2\CN(C(=O)CCN3CCC(=NO)CC3)C/C(=C\c3cc(OC)c(OC)c(OC)c3)C2=O)cc(OC)c1OC
- GI50 (SK-MEL-2 melanoma): 1.25 µM
- TGI (SK-MEL-2 melanoma): 4.14 µM
- GI50 (A549 NSCLC): 1.15 µM
- TGI (A549 NSCLC): 5.82 µM
- GI50 (RXF 393 renal): 0.354 µM
- TGI (RXF 393 renal): 0.999 µM
- GI50 (MCF7 breast): 0.382 µM
- TGI (MCF7 breast): 2.44 µM
- GI50 (M14 melanoma): 0.248 µM
- TGI (M14 melanoma): 0.812 µM
- GI50 (ACHN renal): 0.837 µM
- TGI (ACHN renal): 2.51 µM
- GI50 (T-47D breast): 0.803 µM
- TGI (T-47D breast): 10.6 µM
- GI50 (KM12 colon): 0.263 µM
- TGI (KM12 colon): 0.731 µM
- GI50 (DU-145 prostate): 0.657 µM
- TGI (DU-145 prostate): 1.7 µM
- GI50 (OVCAR-3 ovarian): 0.391 µM
- TGI (OVCAR-3 ovarian): 1.26 µM

SMILES: Cc1cnc(Nc2ccc(OCCN3CCCC3)cc2)nc1Nc1cccc(S(=O)(=O)NC(C)(C)C)c1
- GI50 (SK-MEL-2 melanoma): 0.17 µM and 0.759 µM
- TGI (SK-MEL-2 melanoma): 2.68 µM and > 10 µM
- GI50 (A549 NSCLC): 0.335 µM and 1.36 µM
- TGI (A549 NSCLC): 7.29 µM and 6 µM
- GI50 (RXF 393 renal): 0.0955 µM and 0.518 µM
- TGI (RXF 393 renal): 0.385 µM and 1.78 µM
- GI50 (MCF7 breast): 0.143 µM and 0.775 µM
- TGI (MCF7 breast): 9.16 µM and > 10 µM
- GI50 (M14 melanoma): 0.19 µM and 0.61 µM
- TGI (M14 melanoma): 3.54 µM and 6.25 µM
- GI50 (ACHN renal): 0.0927 µM and 0.733 µM
- TGI (ACHN renal): 1.89 µM and 3.49 µM
- GI50 (T-47D breast): 2.13 µM and 2.11 µM
- TGI (T-47D breast): 24.2 µM and > 10 µM
- GI50 (KM12 colon): 0.361 µM
- TGI (KM12 colon): 8.72 µM and > 10 µM
- GI50 (DU-145 prostate): 0.252 µM and 1.16 µM
- TGI (DU-145 prostate): 13.6 µM and > 10 µM
- GI50 (OVCAR-3 ovarian): 0.464 µM and 1.36 µM
- TGI (OVCAR-3 ovarian): 14.7 µM and > 10 µM

SMILES: O=C1C(Cl)=C(c2ccc([N+](=O)[O-])cc2)C(=O)c2c(O)cccc21
- TGI (SK-MEL-2 melanoma): 2.22 µM
- TGI (A549 NSCLC): 25 µM
- TGI (RXF 393 renal): 3.49 µM
- TGI (MCF7 breast): 14.2 µM
- TGI (M14 melanoma): 3.66 µM
- TGI (ACHN renal): 2.36 µM
- TGI (T-47D breast): 5.54 µM
- TGI (KM12 colon): 3.63 µM
- TGI (DU-145 prostate): 19.4 µM
- TGI (OVCAR-3 ovarian): 3.11 µM

SMILES: Nc1cc2[nH]cnc2c(=O)[nH]1
- TGI (SK-MEL-2 melanoma): 125 µM
- TGI (A549 NSCLC): > 300 µM
- TGI (RXF 393 renal): > 300 µM
- TGI (MCF7 breast): > 300 µM
- TGI (M14 melanoma): > 300 µM
- TGI (ACHN renal): > 300 µM
- TGI (T-47D breast): > 300 µM
- TGI (KM12 colon): > 300 µM
- TGI (DU-145 prostate): > 300 µM
- TGI (OVCAR-3 ovarian): 92.4 µM
